Source: ChEMBL document CHEMBL4007392, “Modulating Mineralocorticoid Receptor with Non-steroidal Antagonists. New Opportunities for the Development of Potent and Selective Ligands without Off-Target Side Effects” (J Med Chem, 2017)

System: not listed separately
Assay: Displacement of [3H]-Aldosterone from recombinant rhesus monkey MR expressed in baculovirus infected insect cells after 3 hrs by filter-based Topcount method
Design: species or system Macaca mulatta

Compound	Ki
COc1cc(C2C(C(=O)Oc3ccccc3)=C(C)NC(C)=C2C(=O)Oc2ccccc2)ccc1O	21.5 nM
CCCSC1=C(C#N)C(c2ccccc2Cl)C(C(=O)Nc2ccccc2OC)=C(C)N1 (stereo unspecified)	14.9 nM
COC(=O)C1=C(C)NC(C)=C(C(=O)OC)C1c1cccc2ccccc12	61 nM
Cc1cccc(Cn2ccnc2C(c2ccccc2)c2ccccc2)c1	134 nM
CCSC1=C(C#N)C(c2ccccc2Cl)C(C(=O)Nc2ccccc2OC)=C(C)N1 (stereo unspecified)	53 nM
CC(c1ccccc1)n1ccnc1C(c1ccccc1)c1ccccc1 (stereo unspecified)	285 nM

Target: T1, Mineralocorticoid receptor (Homo sapiens, UniProt P08235)
T1 sequence (P08235 whole entry): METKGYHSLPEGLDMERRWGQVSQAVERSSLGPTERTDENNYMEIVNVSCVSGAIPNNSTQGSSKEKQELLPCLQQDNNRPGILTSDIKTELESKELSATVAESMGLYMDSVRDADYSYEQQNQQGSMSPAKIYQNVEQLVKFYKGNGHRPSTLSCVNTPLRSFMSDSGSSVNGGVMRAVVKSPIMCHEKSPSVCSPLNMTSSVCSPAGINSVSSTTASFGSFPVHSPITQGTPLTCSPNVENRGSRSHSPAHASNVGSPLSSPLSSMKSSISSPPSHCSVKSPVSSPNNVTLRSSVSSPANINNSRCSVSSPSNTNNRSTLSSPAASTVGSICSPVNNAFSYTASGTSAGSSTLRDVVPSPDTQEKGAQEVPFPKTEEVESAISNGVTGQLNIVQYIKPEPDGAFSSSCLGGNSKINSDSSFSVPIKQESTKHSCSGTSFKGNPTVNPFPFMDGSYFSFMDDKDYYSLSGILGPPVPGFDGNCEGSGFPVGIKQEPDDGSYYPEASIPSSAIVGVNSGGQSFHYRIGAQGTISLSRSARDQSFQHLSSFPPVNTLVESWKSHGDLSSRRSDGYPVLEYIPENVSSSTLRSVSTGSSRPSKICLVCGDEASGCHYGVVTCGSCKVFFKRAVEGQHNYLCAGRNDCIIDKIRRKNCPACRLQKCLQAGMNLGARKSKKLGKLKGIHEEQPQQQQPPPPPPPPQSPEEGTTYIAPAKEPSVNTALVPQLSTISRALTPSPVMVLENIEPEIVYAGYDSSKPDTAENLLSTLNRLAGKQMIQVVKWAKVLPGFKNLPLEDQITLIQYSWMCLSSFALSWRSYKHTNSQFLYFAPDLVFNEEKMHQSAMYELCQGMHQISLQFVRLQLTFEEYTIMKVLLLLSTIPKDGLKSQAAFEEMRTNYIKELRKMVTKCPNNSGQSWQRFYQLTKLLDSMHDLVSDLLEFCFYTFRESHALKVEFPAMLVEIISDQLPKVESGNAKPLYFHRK
Assay: Antagonist activity at Gal4-fused human MR LBD (734 to 985 residues) expressed in CHO-K1 cells after 5 to 6 hrs by luciferase reporter gene assay
Format: cell-based

IC50	Compound
7 nM	CC(=O)C1=C(C)NC(C)=C(C(=O)OC2CCC2)[C@@H]1c1cccc2c(=O)cc(C)oc12

Target: T1, Mineralocorticoid receptor
Assay: Displacement of [3H]-Aldosterone from MR overexpressed in human 293 cells measured after overnight incubation by TopCount method
Format: cell-based

Ki	Compound
≤ 500 nM	CCC(CC)(c1ccc(Cl)cc1)c1c[nH]c2c(NS(C)(=O)=O)cccc12
≤ 500 nM	CCC(CC)(c1ccc2c(c1)OCCO2)c1c[nH]c2c(NS(C)(=O)=O)cccc12
≤ 500 nM	CCC(CC)(c1cc2ccccc2o1)c1c[nH]c2c(NS(C)(=O)=O)cccc12
≤ 500 nM	CCC(CC)(c1ccccc1)c1c[nH]c2c(NS(C)(=O)=O)cccc12
≤ 500 nM	CCC(CC)(c1ccc(O)cc1)c1c[nH]c2c(NS(C)(=O)=O)cccc12
≤ 500 nM	CCC(CC)(c1ccc2ncsc2c1)c1c[nH]c2c(NS(C)(=O)=O)cccc12

Target: T2, Mineralocorticoid receptor (Homo sapiens) (UniProt P08235)
T2 sequence (whole entry): T1 sequence (P08235 whole entry)
Assay: Antagonist activity at full-length human MR expressed in CHO-K1 cells assessed as inhibition of aldosterone-induced response measured after overnight incubation by luminesence analysis
Format: cell-based

Inhibitory potency	Compound
3 nM	CCC(O)C(CC)(c1ccc(Br)cc1)n1ncc2c(NS(C)(=O)=O)cccc21 (stereo unspecified)
15 nM	CCC(O)C(CC(F)F)(c1ccc(C(F)(F)F)cc1)n1ncc2c(NS(C)(=O)=O)cccc21 (stereo unspecified)
9 nM	CCC(O)C(CC)(c1ccc(C(F)(F)F)cc1)n1ncc2c(NS(C)(=O)=O)cc(F)cc21 (stereo unspecified)
4 nM	CCC(c1ccc(C(F)(F)F)cc1)(C(O)C(F)F)n1ncc2c(NS(=O)(=O)CC)cccc21 (stereo unspecified)
11 nM	CCC(c1ccc(C(F)(F)F)cc1)(C(O)C(F)F)n1ncc2c(NS(=O)(=O)CC)cc(F)cc21 (stereo unspecified)

Target: T3, Mineralocorticoid receptor (Rattus norvegicus, UniProt P22199)
T3 sequence (P22199 whole entry): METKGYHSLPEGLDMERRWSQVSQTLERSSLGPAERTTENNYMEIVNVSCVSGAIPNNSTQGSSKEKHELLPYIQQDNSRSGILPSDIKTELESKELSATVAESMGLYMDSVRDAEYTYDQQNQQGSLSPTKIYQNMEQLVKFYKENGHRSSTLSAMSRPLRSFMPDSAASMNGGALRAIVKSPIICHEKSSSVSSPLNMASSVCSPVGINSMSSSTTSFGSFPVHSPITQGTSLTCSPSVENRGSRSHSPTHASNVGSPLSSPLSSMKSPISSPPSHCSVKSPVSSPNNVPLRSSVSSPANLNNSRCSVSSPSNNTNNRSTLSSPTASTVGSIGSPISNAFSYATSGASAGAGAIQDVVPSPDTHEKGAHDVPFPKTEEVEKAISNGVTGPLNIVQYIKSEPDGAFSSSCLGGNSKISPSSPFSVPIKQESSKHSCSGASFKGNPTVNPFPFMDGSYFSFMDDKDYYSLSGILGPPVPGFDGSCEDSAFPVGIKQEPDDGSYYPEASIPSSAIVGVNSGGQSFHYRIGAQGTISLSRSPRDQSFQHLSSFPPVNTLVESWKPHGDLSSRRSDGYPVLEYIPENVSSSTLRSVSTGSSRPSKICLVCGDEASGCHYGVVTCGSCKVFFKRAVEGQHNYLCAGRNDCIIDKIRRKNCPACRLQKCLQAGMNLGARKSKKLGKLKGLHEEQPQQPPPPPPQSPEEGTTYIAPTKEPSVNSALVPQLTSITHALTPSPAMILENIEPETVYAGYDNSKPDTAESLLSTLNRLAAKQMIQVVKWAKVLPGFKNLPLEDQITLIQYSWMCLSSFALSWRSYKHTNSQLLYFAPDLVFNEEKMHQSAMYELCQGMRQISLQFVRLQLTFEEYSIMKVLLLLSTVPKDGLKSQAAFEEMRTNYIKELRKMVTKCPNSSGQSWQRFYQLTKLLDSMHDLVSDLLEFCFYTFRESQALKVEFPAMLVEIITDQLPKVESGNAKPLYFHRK
Assay: Displacement of [3H]-Aldosterone from MR in Sprague-Dawley rat kidney cytosolic fraction measured after overnight incubation by liquid scintillation counting method

IC50	Compound
< 500 nM	Cc1cc(Cl)ccc1C1=CC(C)(C)Oc2cc(NS(C)(=O)=O)ccc21
< 500 nM	CC1=C(c2ccc(F)cc2)c2ccc(NS(C)(=O)=O)cc2OC1(C)C
< 500 nM	CC1(C)N=C(c2ccc(Cl)cc2)c2ccc(NS(C)(=O)=O)cc2O1
< 500 nM	Cc1cc(NS(C)(=O)=O)cc2c1C(c1ccc(F)cc1)=NC(C)(C)O2

Target: Mineralocorticoid receptor (Homo sapiens, UniProt P08235, C808S)
Sequence (P08235 whole entry C808S, the tested form may be a part): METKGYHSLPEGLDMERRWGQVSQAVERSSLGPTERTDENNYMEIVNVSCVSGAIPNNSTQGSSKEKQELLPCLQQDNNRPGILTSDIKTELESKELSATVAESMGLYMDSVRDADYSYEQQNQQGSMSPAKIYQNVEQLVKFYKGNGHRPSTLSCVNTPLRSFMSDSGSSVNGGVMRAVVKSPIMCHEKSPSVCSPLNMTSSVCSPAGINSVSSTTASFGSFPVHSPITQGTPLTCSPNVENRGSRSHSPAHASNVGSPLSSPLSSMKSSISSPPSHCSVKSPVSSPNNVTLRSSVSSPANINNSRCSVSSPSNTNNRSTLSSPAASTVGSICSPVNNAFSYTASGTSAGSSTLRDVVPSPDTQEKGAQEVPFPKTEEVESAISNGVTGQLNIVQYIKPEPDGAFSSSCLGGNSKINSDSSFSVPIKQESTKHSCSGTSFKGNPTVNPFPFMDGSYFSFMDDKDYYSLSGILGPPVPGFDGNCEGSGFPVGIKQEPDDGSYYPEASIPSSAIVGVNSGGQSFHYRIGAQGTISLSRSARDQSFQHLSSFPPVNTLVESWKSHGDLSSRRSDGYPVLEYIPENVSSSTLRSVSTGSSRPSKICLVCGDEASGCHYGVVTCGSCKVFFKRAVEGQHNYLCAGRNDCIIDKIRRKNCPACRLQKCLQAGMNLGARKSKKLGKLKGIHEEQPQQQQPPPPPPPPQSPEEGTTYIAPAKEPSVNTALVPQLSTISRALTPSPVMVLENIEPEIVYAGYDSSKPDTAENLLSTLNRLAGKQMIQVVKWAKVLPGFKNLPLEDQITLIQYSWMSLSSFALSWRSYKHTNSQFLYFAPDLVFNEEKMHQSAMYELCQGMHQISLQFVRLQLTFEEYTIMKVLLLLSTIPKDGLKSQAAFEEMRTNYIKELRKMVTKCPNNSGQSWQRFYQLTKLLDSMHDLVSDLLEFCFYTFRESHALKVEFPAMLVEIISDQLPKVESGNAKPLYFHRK
Assay: Binding affinity to N-terminal 6His-GST-tagged human MR LBD (727 to 984 residues) harboring C808S mutation expressed in Escherichia coli BL21DE3/corticosterone complex by AlphaScreen assay

IC50	Compound
1400 nM	H-KENNALLRYLLDRDD-OH
1100 nM	CC(C)C[C@H](NC(=O)[C@H](CC(C)C)NC(=O)[C@H](CCC(=O)O)NC(=O)[C@H](CO)NC(=O)[C@H](CS)NC(=O)[C@@H]1CCCN1C(=O)[C@H](CCCNC(=N)N)NC(=O)[C@@H](N)CCCNC(=N)N)C(=O)N[C@@H](CCCCN)C(=O)N[C@@H](Cc1ccc(O)cc1)C(=O)N[C@@H](CC(C)C)C(=O)N[C@H](C(=O)N[C@H](C(=O)N[C@@H](CC(N)=O)C(=O)N[C@@H](CC(=O)O)C(=O)O)[C@H](C)O)[C@H](C)O
4600 nM	H-QEKHRILHKLLQNGN-OH

Compound	IC50
CC(C)C[C@H](NC(=O)[C@H](CO)NC(=O)[C@H](CCCCN)NC(=O)[C@H](CCC(N)=O)NC(=O)[C@H](CCC(N)=O)NC(=O)[C@H](C)N)C(=O)N[C@@H](CC(C)C)C(=O)N[C@@H](CCC(N)=O)C(=O)N[C@@H](CCC(N)=O)C(=O)N[C@@H](CC(C)C)C(=O)N[C@@H](CC(C)C)C(=O)N[C@H](C(=O)N[C@@H](CCC(=O)O)C(=O)O)[C@@H](C)O	900 nM
